The results in this text go back to EP4722201A1, “3-PHENYLISOXAZOLINE-5-CARBOXAMIDE COMPOUND, AND PREPARATION METHOD THEREFOR, HERBICIDAL COMPOSITION THEREOF AND USE THEREOF” (Jiangsu Flag Chemical Industry Co., Ltd, priority 2023, dated 2024).

Common to all, as to format: in vivo
One test deals with Alopecurus japonicus. As to the kind of experiment: Indoor herbicide activity determination, Seed Treatment; pre-emergence (soil spray). The note with it: Dosage 240 g a.i./ha. The procedure, abridged:
(§1)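 Pre-emergence soil spray; sandy soil pH 6.1, OM 1%, 7 cm pots; seeds covered, wetted from below, 24 h incubation under light at constant temperature; spray tower, 300 mm height, 390 mL/min nozzle flow; readout = % fresh-weight inhibition vs control at 21 d.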

The subject of the next test is Leptochloa chinensis. The description is as above. The note with it: Dosage 240 g a.i./ha. The procedure, abridged: as §1
The subject of a further test is Lolium multiflorum. Described as above. The note with it: Dosage 240 g a.i./ha. The procedure, abridged: as §1
In another test the test system is Alopecurus myosuroides. Described as above. The note with it: Dosage 240 g a.i./ha. The procedure, abridged:
as §1

The subject of another test is Eleusine indica. The test is described as above. The following applies: Dosage 240 g a.i./ha. The procedure, abridged:
as §1

The test system of the next test is Eclipta prostrata. As to the kind of experiment: Indoor herbicide activity determination, post-emergence (stem and leaf spray at 2-4 leaf stage). The following applies: 504 h, 60 g a.i./ha, determined 21 days later, read-out: Inhibition rate of fresh weight, Eclipta prostrata. The text has this: (§2) The testing method for herbicide activity of the compound of the present invention was as follows:
(§3) Post-emergence: an appropriate quantity of seeds of gramineous weeds (Echinochloa crusgalli, Eleusine indica, Digitaria sanguinalis, Alopecurus japonicus, Beckmannia syzigachne, Leptochloa chinensis, Polypogon fugax, Alopecurus aequalis, Lolium multiflorum, Poa annua, Aegilops tauschii, Avena fatua, Alopecurus myosuroides, Alopecurus japonicus and Alopecurus aequalis), broad-leaved weeds (Eclipta prostrata, Amaranthus retroflexus, Rorippa indica, Malachium aquaticum, Veronica polita, Conyza canadensis, Sesbania cannabina, Sagittariatrifolia and Schoenoplectiella juncoides), and Cyperus iria were sown in plastic pots having a diameter of 7 cm and holes at the bottom and filled with nutrient soil (sandy soil, pH 6.1, organic matter 1%) respectively, the seeds were covered with an appropriate amount of soil after being sown, then the soil was wetted with water from the bottom, the seeds were cultured in a constant-temperature illuminated culture room until a 2-4 leaf stage, and stems and leaves underwent spray treatment. After the treatment, the test materials were placed in a laboratory and cultured in the constant-temperature illuminated culture room after the liquid was naturally dry in the shade, and results were determined 21 days later. Inhibition rate of fresh weight % = (1−(fresh weight of treated plants)/(fresh weight of control plants)) × 100% [formula]

Another test deals with Cyperus iria. The test is described as above. The note with it: 504 h, 60 g a.i./ha, determined 21 days later, read-out: Inhibition rate of fresh weight, Cyperus iria.
Source text: as §2, §3

A further test has as its system Digitaria sanguinalis. The test is described as above. The following applies: 504 h, 60 g a.i./ha, determined 21 days later, read-out: Inhibition rate of fresh weight, Digitaria sanguinalis.
Source text: as §2, §3

A word on the inhibition: it is the percentage by which the read-out fell short of the control.

In the case of `C=CC1(C(=O)N[C@H]2C[C@@H](C(=O)O)C2)CC(c2cc(F)cc(C(F)(F)F)c2)=NO1` (mixture of isomers) [I-49], the “Herbicidal activities, Alopecurus japonicus (inhibition rate class)” value in the test on Alopecurus japonicus is reported as “A (A indicates that the inhibition rate was greater than or equal to 80% to 100%)”. The “Herbicidal activities, Leptochloa chinensis (inhibition rate class)” value in the test on Leptochloa chinensis is “A (A indicates that the inhibition rate was greater than or equal to 80% to 100%)”. Also, the “Herbicidal activities, Lolium multiflorum (inhibition rate class)” value in the test with Lolium multiflorum was “A (A indicates that the inhibition rate was greater than or equal to 80% to 100%)”. The “Herbicidal activities, Alopecurus myosuroides (inhibition rate class)” value in the test on Alopecurus myosuroides was “A (A indicates that the inhibition rate was greater than or equal to 80% to 100%)”. In addition, in the test with Eleusine indica, the “Herbicidal activities, Eleusine indica (inhibition rate class)” value was “A (A indicates that the inhibition rate was greater than or equal to 80% to 100%)”. The inhibition at 60 g/ha in the test on Eclipta prostrata is 60 to 80%; in the test on Cyperus iria it was 80 to 100%; with Digitaria sanguinalis it was 60 to 80%.

As for `C=CC1(C(=O)N[C@H]2C[C@@H](C(=O)OC)C2)CC(c2cc(F)cc(C(F)(F)F)c2)=NO1` (mixture of isomers) [I-51], the “Herbicidal activities, Alopecurus japonicus (inhibition rate class)” value in the test on Alopecurus japonicus was “A (A indicates that the inhibition rate was greater than or equal to 80% to 100%)”. Also, the “Herbicidal activities, Leptochloa chinensis (inhibition rate class)” value in the test with Leptochloa chinensis was “A (A indicates that the inhibition rate was greater than or equal to 80% to 100%)”. Further, the “Herbicidal activities, Lolium multiflorum (inhibition rate class)” value in the test on Lolium multiflorum was “A (A indicates that the inhibition rate was greater than or equal to 80% to 100%)”. Moreover, the “Herbicidal activities, Alopecurus myosuroides (inhibition rate class)” value in the test on Alopecurus myosuroides is “A (A indicates that the inhibition rate was greater than or equal to 80% to 100%)”. Moreover, the “Herbicidal activities, Eleusine indica (inhibition rate class)” value with Eleusine indica is given as “A (A indicates that the inhibition rate was greater than or equal to 80% to 100%)”. The figures for the inhibition at 60 g/ha in the test on Eclipta prostrata, with Cyperus iria and in the test on Digitaria sanguinalis were 60 to 80%, 80 to 100% and 60 to 80%, respectively.

On to `C=CC1(C(=O)N[C@H]2C[C@@H](C(=O)O)C2)CC(c2cc(F)cc(OC(F)(F)F)c2)=NO1` (mixture of isomers) [I-57], for which the “Herbicidal activities, Alopecurus japonicus (inhibition rate class)” value in the test on Alopecurus japonicus is reported as “A (A indicates that the inhibition rate was greater than or equal to 80% to 100%)”. For the same compound, the “Herbicidal activities, Leptochloa chinensis (inhibition rate class)” value with Leptochloa chinensis is “A (A indicates that the inhibition rate was greater than or equal to 80% to 100%)”. Besides, the “Herbicidal activities, Lolium multiflorum (inhibition rate class)” value in the test with Lolium multiflorum was “A (A indicates that the inhibition rate was greater than or equal to 80% to 100%)”. Moreover, the “Herbicidal activities, Alopecurus myosuroides (inhibition rate class)” value in the test with Alopecurus myosuroides is on record as “A (A indicates that the inhibition rate was greater than or equal to 80% to 100%)”. The “Herbicidal activities, Eleusine indica (inhibition rate class)” value in the test on Eleusine indica is given as “A (A indicates that the inhibition rate was greater than or equal to 80% to 100%)”. For the same compound, the inhibition at 60 g/ha with Eclipta prostrata was 60 to 80%; with Cyperus iria, 80 to 100%; in the test with Digitaria sanguinalis, 80 to 100%.

As for `C=CC1(C(=O)N[C@H]2C[C@@H](C(=O)OC)C2)CC(c2cc(F)cc(OC(F)(F)F)c2)=NO1` (mixture of isomers) [I-59], the “Herbicidal activities, Alopecurus japonicus (inhibition rate class)” value in the test with Alopecurus japonicus is “A (A indicates that the inhibition rate was greater than or equal to 80% to 100%)”. In the test with Leptochloa chinensis, the “Herbicidal activities, Leptochloa chinensis (inhibition rate class)” value was “A (A indicates that the inhibition rate was greater than or equal to 80% to 100%)”. Also, the “Herbicidal activities, Lolium multiflorum (inhibition rate class)” value with Lolium multiflorum was “A (A indicates that the inhibition rate was greater than or equal to 80% to 100%)”. Besides, the “Herbicidal activities, Alopecurus myosuroides (inhibition rate class)” value in the test with Alopecurus myosuroides is reported as “A (A indicates that the inhibition rate was greater than or equal to 80% to 100%)”. Moreover, the “Herbicidal activities, Eleusine indica (inhibition rate class)” value in the test on Eleusine indica is listed as “A (A indicates that the inhibition rate was greater than or equal to 80% to 100%)”. Moreover, the inhibition at 60 g/ha lay within 60 to 80% with Eclipta prostrata, 80 to 100% in the test with Cyperus iria and 80 to 100% with Digitaria sanguinalis.

In the case of `CC1(C(=O)N[C@H]2C[C@@H](C(=O)O)C2)CC(c2cc(F)cc(F)c2)=NO1` (mixture of isomers) [I-111], the “Herbicidal activities, Alopecurus japonicus (inhibition rate class)” value in the test on Alopecurus japonicus is on record as “A (A indicates that the inhibition rate was greater than or equal to 80% to 100%)”. Moreover, the “Herbicidal activities, Leptochloa chinensis (inhibition rate class)” value with Leptochloa chinensis is “A (A indicates that the inhibition rate was greater than or equal to 80% to 100%)”. The “Herbicidal activities, Lolium multiflorum (inhibition rate class)” value in the test with Lolium multiflorum is “A (A indicates that the inhibition rate was greater than or equal to 80% to 100%)”. Further, the “Herbicidal activities, Alopecurus myosuroides (inhibition rate class)” value with Alopecurus myosuroides is “A (A indicates that the inhibition rate was greater than or equal to 80% to 100%)”. In addition, the “Herbicidal activities, Eleusine indica (inhibition rate class)” value in the test with Eleusine indica was “A (A indicates that the inhibition rate was greater than or equal to 80% to 100%)”. Further, the values for the inhibition at 60 g/ha in the test on Eclipta prostrata, in the test with Cyperus iria and with Digitaria sanguinalis were 60 to 80%, 80 to 100% and 80 to 100%, respectively.

Consider `COC(=O)[C@H]1C[C@@H](NC(=O)C2(C)CC(c3cc(F)cc(F)c3)=NO2)C1` (mixture of isomers) [I-113], for which the “Herbicidal activities, Alopecurus japonicus (inhibition rate class)” value in the test on Alopecurus japonicus is given as “A (A indicates that the inhibition rate was greater than or equal to 80% to 100%)”. Besides, the “Herbicidal activities, Leptochloa chinensis (inhibition rate class)” value with Leptochloa chinensis is recorded as “A (A indicates that the inhibition rate was greater than or equal to 80% to 100%)”. Besides, the “Herbicidal activities, Lolium multiflorum (inhibition rate class)” value in the test with Lolium multiflorum was “A (A indicates that the inhibition rate was greater than or equal to 80% to 100%)”. In addition, the “Herbicidal activities, Alopecurus myosuroides (inhibition rate class)” value with Alopecurus myosuroides is reported as “A (A indicates that the inhibition rate was greater than or equal to 80% to 100%)”. Further, the “Herbicidal activities, Eleusine indica (inhibition rate class)” value in the test with Eleusine indica was “A (A indicates that the inhibition rate was greater than or equal to 80% to 100%)”. The results for the inhibition at 60 g/ha in the test on Eclipta prostrata, in the test with Cyperus iria and in the test with Digitaria sanguinalis were 60 to 80%, 80 to 100% and 80 to 100%, respectively.

Consider `CC1(C(=O)N[C@H]2C[C@@H](C(=O)O)C2)CC(c2cc(F)cc(Cl)c2)=NO1` (mixture of isomers) [I-132], for which the “Herbicidal activities, Alopecurus japonicus (inhibition rate class)” value in the test with Alopecurus japonicus is listed as “A (A indicates that the inhibition rate was greater than or equal to 80% to 100%)”. In the test on Leptochloa chinensis, the “Herbicidal activities, Leptochloa chinensis (inhibition rate class)” value is given as “A (A indicates that the inhibition rate was greater than or equal to 80% to 100%)”. In addition, the “Herbicidal activities, Lolium multiflorum (inhibition rate class)” value with Lolium multiflorum was “A (A indicates that the inhibition rate was greater than or equal to 80% to 100%)”. The “Herbicidal activities, Alopecurus myosuroides (inhibition rate class)” value in the test on Alopecurus myosuroides is listed as “A (A indicates that the inhibition rate was greater than or equal to 80% to 100%)”. Moreover, in the test with Eleusine indica, the “Herbicidal activities, Eleusine indica (inhibition rate class)” value is on record as “A (A indicates that the inhibition rate was greater than or equal to 80% to 100%)”. In addition, the figures for the inhibition at 60 g/ha in the test on Eclipta prostrata, with Cyperus iria and in the test on Digitaria sanguinalis were 60 to 80%, 80 to 100% and 80 to 100%, respectively.

For `COC(=O)[C@H]1C[C@@H](NC(=O)C2(C)CC(c3cc(F)cc(Cl)c3)=NO2)C1` (mixture of isomers) [I-134], in the test on Alopecurus japonicus, the “Herbicidal activities, Alopecurus japonicus (inhibition rate class)” value was “A (A indicates that the inhibition rate was greater than or equal to 80% to 100%)”. For the same compound, the “Herbicidal activities, Leptochloa chinensis (inhibition rate class)” value in the test with Leptochloa chinensis was “A (A indicates that the inhibition rate was greater than or equal to 80% to 100%)”. Further, the “Herbicidal activities, Lolium multiflorum (inhibition rate class)” value in the test on Lolium multiflorum is on record as “A (A indicates that the inhibition rate was greater than or equal to 80% to 100%)”. In the test on Alopecurus myosuroides, the “Herbicidal activities, Alopecurus myosuroides (inhibition rate class)” value was “A (A indicates that the inhibition rate was greater than or equal to 80% to 100%)”. In addition, the “Herbicidal activities, Eleusine indica (inhibition rate class)” value with Eleusine indica is on record as “A (A indicates that the inhibition rate was greater than or equal to 80% to 100%)”. Further, the inhibition at 60 g/ha fell in the range of 60 to 80% in the test with Eclipta prostrata, 80 to 100% in the test on Cyperus iria and 80 to 100% in the test with Digitaria sanguinalis.

Turning to `CC1(C(=O)N[C@H]2C[C@@H](C(=O)O)C2)CC(c2cc(Cl)cc(Cl)c2)=NO1` (mixture of isomers) [I-137], in the test with Alopecurus japonicus, the “Herbicidal activities, Alopecurus japonicus (inhibition rate class)” value is on record as “A (A indicates that the inhibition rate was greater than or equal to 80% to 100%)”. Further, the “Herbicidal activities, Leptochloa chinensis (inhibition rate class)” value with Leptochloa chinensis is reported as “A (A indicates that the inhibition rate was greater than or equal to 80% to 100%)”. Moreover, the “Herbicidal activities, Lolium multiflorum (inhibition rate class)” value in the test on Lolium multiflorum is reported as “A (A indicates that the inhibition rate was greater than or equal to 80% to 100%)”. The “Herbicidal activities, Alopecurus myosuroides (inhibition rate class)” value in the test on Alopecurus myosuroides was “A (A indicates that the inhibition rate was greater than or equal to 80% to 100%)”. Besides, the “Herbicidal activities, Eleusine indica (inhibition rate class)” value with Eleusine indica is “A (A indicates that the inhibition rate was greater than or equal to 80% to 100%)”. Further, the inhibition at 60 g/ha in the test on Eclipta prostrata was 40 to 60%; in the test with Cyperus iria, 80 to 100%; in the test with Digitaria sanguinalis, 80 to 100%.
